Assay results taken from patent US10294202B2, “Pyrrolidinones as herbicides” (FMC Corporation, priority 2013, dated 2019).

Assays:
[1] = tested on: foxtail, giant; assay: Test C pre-/postemergence herbicide test; type: in vivo, Setaria faberii; settings: Preemergence; for Foxtail, Giant plant response rating: 31 g ai/ha, scale 0 to 100, 0 is no effect and 100 is complete control
In short: (§1)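 Herbicidal effect was judged by eye 13 to 15 days after treatment in the greenhouse, using a 0–100 scale against controls. Chemicals in a non-phytotoxic solvent with surfactant were sprayed onto planted loam/sand soil or onto plants 2 to 18 cm tall in a peat-based growing medium.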

[2] = tested on: crabgrass, large; assay: Test C pre-/postemergence herbicide test; type: in vivo, Digitaria sanguinalis; settings: Preemergence; for Crabgrass, Large plant response rating: 31 g ai/ha, scale 0 to 100, 0 is no effect and 100 is complete control
In short: as §1

[3] = tested on: corn; assay: Test C pre-/postemergence herbicide test; type: in vivo, Zea mays; settings: Preemergence; for Corn plant response rating: 31 g ai/ha, scale 0 to 100, 0 is no effect and 100 is complete control
In short: as §1

[4] = tested on: pigweed; assay: Test A pre-/postemergence herbicide test; type: in vivo, Amaranthus retroflexus; settings: for Pigweed plant response rating: Preemergence, visual rating on 0 to 100 scale (0 no effect, 100 complete control)
In short: (§2)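 Both application timings used compounds in a non-phytotoxic solvent plus surfactant. Pre-emergence: soil sprayed directly after seeding into loam/sand. Post-emergence: foliage of 2–10 cm seedlings (1–2 leaves) sprayed. Injury rated ~10 days later, 0–100.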

[5] = tested on: galium; assay: Test C pre-/postemergence herbicide test; type: in vivo, Galium aparine; settings: Preemergence; for Galium plant response rating: 31 g ai/ha, scale 0 to 100, 0 is no effect and 100 is complete control
In short: as §1

[6] = tested on: barnyardgrass; assay: Test A pre-/postemergence herbicide test; type: in vivo, Echinochloa crus-galli; settings: for Barnyardgrass plant response rating: Preemergence, visual rating on 0 to 100 scale (0 no effect, 100 complete control)
In short: as §2

[7] = tested on: wheat; assay: Test A pre-/postemergence herbicide test; type: in vivo, Triticum aestivum; settings: for Wheat plant response rating: Preemergence, visual rating on 0 to 100 scale (0 no effect, 100 complete control)
In short: as §2

[8] = tested on: wheat (winter wheat); assay: Test C pre-/postemergence herbicide test; type: in vivo, Triticum aestivum; settings: Preemergence; for Wheat plant response rating: 31 g ai/ha, scale 0 to 100, 0 is no effect and 100 is complete control
In short: as §1

[9] = tested on: morningglory; assay: Test C pre-/postemergence herbicide test; type: in vivo, Ipomoea coccinea; settings: Preemergence; for Morningglory plant response rating: 31 g ai/ha, scale 0 to 100, 0 is no effect and 100 is complete control
In short: as §1

[10] = tested on: corn; assay: Test A pre-/postemergence herbicide test; type: in vivo, Zea mays; settings: for Corn plant response rating: Preemergence, visual rating on 0 to 100 scale (0 no effect, 100 complete control)
In short: as §2

[11] = tested on: soybean; assay: Test C pre-/postemergence herbicide test; type: in vivo, Glycine max; settings: Preemergence; for Soybean plant response rating: 31 g ai/ha, scale 0 to 100, 0 is no effect and 100 is complete control
In short: as §1

[12] = tested on: johnsongrass; assay: Test C pre-/postemergence herbicide test; type: in vivo, Sorghum halepense; settings: Preemergence; for Johnsongrass plant response rating: 31 g ai/ha, scale 0 to 100, 0 is no effect and 100 is complete control
In short: as §1

[13] = tested on: ryegrass, Italian; assay: Test C pre-/postemergence herbicide test; type: in vivo, Lolium multiflorum; settings: Preemergence; for Ryegrass, Italian plant response rating: 31 g ai/ha, scale 0 to 100, 0 is no effect and 100 is complete control
In short: as §1

[14] = 125 g ai/ha, scale 0 to 100 (0 no effect, 100 complete control)
[15] = 250 g ai/ha, scale 0 to 100 (0 no effect, 100 complete control)
[16] = Postemergence, 125 g ai/ha, 0 to 100 scale, 0 no effect, 100 complete control
[17] = Postemergence, 500 g ai/ha, 0 to 100 scale (0 no effect, 100 complete control)
[18] = preemergence, 500 g ai/ha, 0 to 100 scale
[19] = preemergence, 500 g ai/ha, 0 to 100 scale (0 no effect, 100 complete control)

O=C1NCC(c2cccc(Br)c2)C1C(=O)Nc1ccccc1F (centres unmarked) [Compound 66]
Foxtail, Giant plant response rating [1]: 20 | Plant response rating, Foxtail, Giant ([1]; 62 g ai/ha, scale 0 to 100): 75 | Plant response rating, Foxtail, Giant [1, 14]: 85 | Plant response rating, Foxtail, Giant [1, 15]: 95 | Crabgrass, Large plant response rating [2]: 90 | Plant response rating, Crabgrass, Large ([2]; 62 g ai/ha, scale 0 to 100): 95 | Plant response rating, Crabgrass, Large [2, 14]: 98 | Plant response rating, Crabgrass, Large [2, 15]: 98 | Corn plant response rating [3]: 0 | Plant response rating, Corn ([3]; 62 g ai/ha, scale 0 to 100): 0 | Plant response rating, Corn [3, 14]: 10 | Plant response rating, Corn [3, 15]: 20 | Plant response rating, Pigweed [4, 16]: 0 | Plant response rating, Pigweed [4, 17]: 0 | Pigweed plant response rating ([4]; 125 g ai/ha): 0 | Plant response rating, Pigweed [4, 18]: 0 | Galium plant response rating [5]: 0 | Plant response rating, Galium ([5]; 62 g ai/ha, scale 0 to 100): 0 | Plant response rating, Galium [5, 14]: 0 | Plant response rating, Galium [5, 15]: 0 | Plant response rating, Barnyardgrass [6, 16]: 80 | Plant response rating, Barnyardgrass [6, 17]: 80 | Barnyardgrass plant response rating ([6]; 125 g ai/ha): 80 | Plant response rating, Barnyardgrass [6, 19]: 90 | Plant response rating, Wheat [7, 16]: 0 | Plant response rating, Wheat [7, 17]: 30 | Wheat plant response rating ([7]; 125 g ai/ha): 0 | Plant response rating, Wheat [7, 18]: 20 | Wheat plant response rating [8]: 0 | Plant response rating, Wheat ([8]; 62 g ai/ha, scale 0 to 100): 0 | Plant response rating, Wheat [8, 14]: 5 | Morningglory plant response rating [9]: 15 | Plant response rating, Morningglory ([9]; 62 g ai/ha, scale 0 to 100): 25 | Plant response rating, Morningglory [9, 14]: 35 | Plant response rating, Corn [10, 16]: 20 | Plant response rating, Corn [10, 17]: 80 | Corn plant response rating ([10]; 125 g ai/ha): 20 | Plant response rating, Corn [10, 18]: 20 | Soybean plant response rating [11]: 15 | Plant response rating, Soybean ([11]; 62 g ai/ha, scale 0 to 100): 20 | Plant response rating, Soybean [11, 14]: 20 | Johnsongrass plant response rating [12]: 30 | Ryegrass, Italian plant response rating [13]: 0 | Plant response rating, Ryegrass, Italian ([13]; 62 g ai/ha, scale 0 to 100): 0 | Plant response rating, Ryegrass, Italian [13, 14]: 0

O=C1NCC(c2cccc(OC(F)(F)F)c2)C1C(=O)Nc1cccc(F)c1F (centres unmarked) [Compound 68]
Foxtail, Giant plant response rating [1]: 85 | Plant response rating, Foxtail, Giant ([1]; 62 g ai/ha, scale 0 to 100): 90 | Plant response rating, Foxtail, Giant [1, 14]: 90 | Plant response rating, Foxtail, Giant [1, 15]: 95 | Crabgrass, Large plant response rating [2]: 90 | Plant response rating, Crabgrass, Large ([2]; 62 g ai/ha, scale 0 to 100): 90 | Plant response rating, Crabgrass, Large [2, 14]: 95 | Plant response rating, Crabgrass, Large [2, 15]: 95 | Corn plant response rating [3]: 15 | Plant response rating, Corn ([3]; 62 g ai/ha, scale 0 to 100): 25 | Plant response rating, Corn [3, 14]: 25 | Plant response rating, Corn [3, 15]: 50 | Plant response rating, Pigweed [4, 16]: 40 | Plant response rating, Pigweed [4, 17]: 60 | Pigweed plant response rating ([4]; 125 g ai/ha): 0 | Plant response rating, Pigweed [4, 18]: 30 | Galium plant response rating [5]: 0 | Plant response rating, Galium ([5]; 62 g ai/ha, scale 0 to 100): 5 | Plant response rating, Galium [5, 14]: 90 | Plant response rating, Galium [5, 15]: 90 | Plant response rating, Barnyardgrass [6, 16]: 70 | Plant response rating, Barnyardgrass [6, 17]: 80 | Barnyardgrass plant response rating ([6]; 125 g ai/ha): 80 | Plant response rating, Barnyardgrass [6, 19]: 90 | Plant response rating, Wheat [7, 16]: 0 | Plant response rating, Wheat [7, 17]: 20 | Wheat plant response rating ([7]; 125 g ai/ha): 0 | Plant response rating, Wheat [7, 18]: 20 | Wheat plant response rating [8]: 0 | Plant response rating, Wheat ([8]; 62 g ai/ha, scale 0 to 100): 5 | Plant response rating, Wheat [8, 14]: 30 | Morningglory plant response rating [9]: 0 | Plant response rating, Morningglory ([9]; 62 g ai/ha, scale 0 to 100): 0 | Plant response rating, Morningglory [9, 14]: 15 | Plant response rating, Corn [10, 16]: 20 | Plant response rating, Corn [10, 17]: 90 | Corn plant response rating ([10]; 125 g ai/ha): 0 | Plant response rating, Corn [10, 18]: 0 | Soybean plant response rating [11]: 0 | Plant response rating, Soybean ([11]; 62 g ai/ha, scale 0 to 100): 0 | Plant response rating, Soybean [11, 14]: 10 | Johnsongrass plant response rating [12]: 0 | Plant response rating, Johnsongrass ([12]; 62 g ai/ha, scale 0 to 100): 35 | Plant response rating, Johnsongrass [12, 14]: 40 | Ryegrass, Italian plant response rating [13]: 0 | Plant response rating, Ryegrass, Italian ([13]; 62 g ai/ha, scale 0 to 100): 0 | Plant response rating, Ryegrass, Italian [13, 14]: 0
